In patent US20220288082A1, “TREATMENT OF DEMENTIA” (Macquarie University, priority 2019, published 2022):

Legend:
APP23 mice [1] = experiment: Hippocampal telemetric EEG recordings (spikes, cross frequency coupling); format: in vivo, mouse; settings: for amplitude phase in EEG recordings / modulation index of cross frequency coupling / spike frequency / hypersynchronous discharges in EEG: n=8; for spike frequency / hypersynchronous discharges in EEG: i.p., 2 hours pre vs 2 hours post administration
Method: (§1) FIG. 4. LIMK1 inhibition reduced susceptibility to induced seizures and mitigated neuronal network hypersynchronicity and memory deficits in a mouse model of Alzheimer's disease. (A) Excitotoxic seizures were induced by acute intraperitoneal injection of 50 mg/kg body weight pentylenetetrazole (PTZ) followed by timing and scoring (0=no seizures to 7=terminal status epilepticus) of seizure development. Mice were treated with vehicle or 10 mg/kg body weight LIMK1 inhibitor (LIMKi) intraperitoneally 30 minutes prior to seizure induction. […] Only vehicle-treated mice develop severe seizure stages over time (i.e. score=5). […] (B) Compound hippocampal electroencephalography (EEG) recordings over 4 hours in non-transgenic (wt) and APP transgenic (APP23) mice including 2 hours before (Pre) and 2 hours after (Post) LIMKi or vehicle administration. Time of intraperitoneal LIMKi and vehicle administration is indicated with an arrow. […] Frequent spikes pre and post vehicle administration in APP23 mice. In contrast, LIMKi injection mitigates spike activity in APP23 post injection. […] (E) Chronic Limkl inhibition reverts memory deficits in AD mice. APP23 mice develop memory deficits in the Morris water maze (MWM) paradigm at 3 months of age. Treatment with 10 mg/kg LIMKi i.p. (3-4 times per week) was initiated at 3 months of age and continued for =4 months before MWM testing at 7 months of age. […] For bar graphs in (C) and (E), from left to right: non-Tg +vehicle; non-Tg+LIMKi; APP23+vehicle; APP23+LIMKi.
Electroencephalography. Hippocampal EEG recordings were done with implanted telemetric electrodes (D.S.I.) as previously described (Ittner et al., 2014, Acta neuropathologica communications 2, 149). All recordings were done with mice individually housed in their home cages one week after implantation of transmitters. Compound administration was done intraperitoneally during transient restraining of mice. Vehicle for the LIMK1 inhibitor LIMKi contained hydroxypropyl methylcellulose 606 (HPMC 606) with polyvinylpyrrolidone k17 (PVP k17) and tween 80 in a proportion of 0.5%, 0.5%, 0.1%, respectively. Spike analysis was done with the Neuroscore software module (D.S.I.) as previously described (Ittner et al., 2016, Science 354, 904-908). Cross frequency coupling of theta and gamma waves was performed as previously described (Ittner et al., 2016, Science 354, 904-908).

[2] = system: C57B^1/6 primary mouse neurons; experiment: Aβ toxicity in cultured primary neurons (dendritic spine loss, cell viability); format: cell-based; settings: pre-treatment, 0.05 μM oligomeric Aβ
Method: C57B^1/6 primary mouse neurons were treated with Compound 1 shown below (also referred to herein as LIMKi) together with 0.05 μM oligomeric Aβ (oAβ ) and determined loss of dendritic spines and cell viability.
Aβ treated neurons presented with loss of spines and reduced viability. […] Next, the inventors determined the potential short-term effects of Compound 1 in vivo. […] Next, the inventors tested the effects of acute Compound 1 administration on neuronal network activity in APP23 mice. […] Furthermore, CFC 1 hour after Compound 1 administration was re-established (data not shown). […] Thus, inhibition of LIMK1 with Compound 1 conferred protection from Aβ toxicity in neurons and from excitotoxicity in vivo. Furthermore, treatment of APP23 with Compound 1 corrected network aberrations including CFC.

LIMK1 = biological target: T1, LIMK1 (Homo sapiens, UniProt P53667); experiment: LIMK1 activity assay (commercial, Promega); format: biochemical; settings: in vitro; LIMKi at 100 μm, 10 μm, 1 μm, 0.1 μm; DMSO did not inhibit
T1 construct: purchased Promega
Source text: LIMK1 activity assay. LIMK1 activity in the absence or presence of different concentrations of LIMKi (or DMSO) was determine with a commercial assay following the manufacturer's instructions (Promega).

APP23 mice [3] = experiment: Morris water maze memory testing after chronic treatment; format: in vivo, mouse
Method: as §1
Memory testing. Memory of mice was assessed in the water T maze paradigm and Morris water maze following published protocols (Ittner et al., 2010, Cell 142, 387-397; Ke et al., 2015, Acta Neuropathol 130, 661-678). Chronic treatment of mice was done by 3-4 times per week intraperitoneal injection of 10 mg/kg LIMKi or vehicle (0.5% hydroxypropyl methylcellulose 606 (HPMC 606), 0.5% polyvinylpyrrolidone k17 (PVP k17) and 0.1% tween 80) starting at 3 months of age and continued until 7 months of age. All mice were acclimatized to the test rooms prior to testing.
Encouraged by the short-term effects of Compound 1 in neurons and APP23 mice (Example 3), the inventors tested whether long-term treatment could improve memory deficits in APP23 mice. 3-month old APP23 mice were treated for four months before being subjected to memory testing in the MWM. APP23 mice present with significant memory deficits at 3 months of age, that progress with age (Ittner et al., 2016, Science 354:904-908). An intermittent treatment schedule was chosen to avoid potential inhibition of astrocyte-mediated AP clearance that could mask therapeutic effects. At 7 months of age, vehicle-treated APP23 mice presented with significant memory deficits as compared to vehicle-treated non-transgenic mice (FIG. 4E).

C57B^1/6 mice = experiment: PTZ-induced excitotoxic seizure model; format: in vivo, mouse; settings: for mean seizure severity: n=9
Method: as §1
Seizure model. Excitotoxic seizure were induced in mice by intraperitoneal injection of 50 mg/kg body weight pentylenetetrazole followed by observation in a square area (40×40 cm). Scoring of seizures was done as previously described (Ittner et al., 2010, Cell 142, 387-397). For LIMKi-treated mice, scoring was adjusted by combining the severe seizure scores 5 to 7 into a single score of 5. For both scales, minor to moderate seizures are reflected by scores <5.

[4] = APP23 mice, 1 hour after administration
[5] = APP23 mice, 1 hour after administration, listed as LIMKi
[6] = 10 mg/kg i.p. 30 minutes prior to 50 mg/kg PTZ, vs vehicle

T1 sequence (P53667 whole entry): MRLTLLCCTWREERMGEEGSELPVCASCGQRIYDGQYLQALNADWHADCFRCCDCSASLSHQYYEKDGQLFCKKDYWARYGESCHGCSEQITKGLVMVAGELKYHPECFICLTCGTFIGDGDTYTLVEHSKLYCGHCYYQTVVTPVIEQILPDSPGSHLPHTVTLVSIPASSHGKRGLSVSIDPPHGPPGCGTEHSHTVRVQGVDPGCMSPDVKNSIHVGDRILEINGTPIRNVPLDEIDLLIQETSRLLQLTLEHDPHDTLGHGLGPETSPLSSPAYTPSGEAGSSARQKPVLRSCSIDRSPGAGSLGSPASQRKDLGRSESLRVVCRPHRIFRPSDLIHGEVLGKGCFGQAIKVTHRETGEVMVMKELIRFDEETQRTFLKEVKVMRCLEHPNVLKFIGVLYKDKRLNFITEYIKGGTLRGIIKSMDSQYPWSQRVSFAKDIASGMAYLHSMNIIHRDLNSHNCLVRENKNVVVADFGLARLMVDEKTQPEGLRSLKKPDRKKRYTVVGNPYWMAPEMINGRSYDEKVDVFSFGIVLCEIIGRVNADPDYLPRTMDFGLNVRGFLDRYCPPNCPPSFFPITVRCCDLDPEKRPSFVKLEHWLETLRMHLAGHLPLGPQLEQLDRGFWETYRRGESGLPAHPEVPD

With `Cc1c[nH]c2ncnc(N3CCN(/C(=N\C#N)Nc4cccc(Br)c4)[C@@H](C)C3)c12` [Compound 1] the “cross frequency coupling (CFC)” value (APP23 mice [1]; APP23 mice, 1 hour after administration, data not shown) was “re-established”, the “amplitude phase in EEG recordings” value (APP23 mice [1]; [4]) was “normalized” and the “modulation index of cross frequency coupling” value (APP23 mice [1]; [4]) was “normalized”. For the same compound, the “amplitude phase in EEG recordings” value (APP23 mice [1]; [5]) was “corrected 1 hour after LIMKi delivery and no longer different from wt controls”, the “modulation index of cross frequency coupling” value (APP23 mice [1]; [5]) was “corrected 1 hours after LIMKi administration and no longer different from wt controls” and the “spike frequency / hypersynchronous discharges in EEG” value (APP23 mice [1]; APP23 mice) was “hypersynchronicity significantly decreased”. The “spike frequency / hypersynchronous discharges in EEG” value (APP23 mice [1]; APP23 mice, listed as LIMKi) was “significantly reduced spike frequency”, the “spike activity in EEG” value (APP23 mice [1]; non-transgenic (wt) mice, pre and post injection) was “No overt spike activity” and the “Aβ-induced death of cultured neurons (cell viability)” value [2] was “dose-dependent protection”. The “Aβ-induced dendritic spine loss” value [2] was “dose-dependent protection”, the LIMK1 activity (LIMK1) was “inhibition of the kinase by LIMKi at all concentrations tested” and the “time in target quadrant during MWM probe trials” value (APP23 mice [3]; APP23 mice, 10 mg/kg i.p. 3-4 times per week for 4 months, n=8-10) was “no significant differences to controls”. For the same compound, the “learning in Morris water maze” value (APP23 mice [3]; APP23 mice, 10 mg/kg i.p. 3-4 times per week from 3 to 7 months of age) was “improved learning of APP23 mice to vehicle control levels”, the “memory performance in MWM” value (APP23 mice [3]; APP23 mice, after four months of treatment, tested at 7 months of age) was “improved memory performance” and the “learning in Morris water maze” value (APP23 mice [3]; non-transgenic control mice, 10 mg/kg i.p. 3-4 times per week for 4 months, 10 mg/kg) was “delayed learning”. The “learning in Morris water maze” value (APP23 mice [3]; non-transgenic control mice, 10 mg/kg i.p. 3-4 times per week for 4 months, listed as LIMKi, 10 mg/kg) was “moderately delayed learning”, the “latency to develop severe seizures” value (C57B^1/6 mice; 10 mg/kg 30 minutes prior to PTZ, C57B1/6 mice) was “increased the latency to develop severe seizures” and the “latency to develop lower grade seizures (score<5)” value (C57B^1/6 mice; [6]) was “Delayed latency to develop lower grade seizures”. The mean seizure severity (C57B^1/6 mice; [6]) was “significantly reduced mean seizure severity” and the mean seizure severity (C57B^1/6 mice; 10 mg/kg i.p. 30 minutes prior to 50 mg/kg PTZ, vs vehicle, listed as LIMKi) was “Significantly reduced seizure severity”.
